ChEMBL document CHEMBL4028801, “A multifactorial approach to hepatobiliary transporter assessment enables improved therapeutic compound development” (Toxicol Sci, 2013)
Values belong to the compound of their own block, whether it stands above or below them.

How the values were obtained:
Bile salt export pump = Bile salt export pump (Homo sapiens, UniProt O95342); assay: Inhibition of human BSEP overexpressed in Sf9 cell membrane vesicles assessed as uptake of [3H]-taurocholate in presence of ATP measured after 15 to 20 mins by membrane vesicle transport assay; assay type: ADME, cell-based
[1] = AUC (0 to 6 hrs) in human at 800 mg administered once per week for 6 weeks through intravesical instillation measured after 6 hrs; assay type: ADME; set-up: dose 800 mg, time < 6 hr; details: in vivo
[2] = molecular target: T1, ATP-binding cassette sub-family C member 4 (Homo sapiens, UniProt O15439); assay: Inhibition of human MRP4 overexpressed in Sf9 cell membrane vesicles assessed as uptake of [3H]-estradiol-17beta-D-glucuronide in presence of ATP and GSH measured after 20 mins by membrane vesicle transport assay; assay type: ADME, cell-based
T1 sequence (O15439 whole entry): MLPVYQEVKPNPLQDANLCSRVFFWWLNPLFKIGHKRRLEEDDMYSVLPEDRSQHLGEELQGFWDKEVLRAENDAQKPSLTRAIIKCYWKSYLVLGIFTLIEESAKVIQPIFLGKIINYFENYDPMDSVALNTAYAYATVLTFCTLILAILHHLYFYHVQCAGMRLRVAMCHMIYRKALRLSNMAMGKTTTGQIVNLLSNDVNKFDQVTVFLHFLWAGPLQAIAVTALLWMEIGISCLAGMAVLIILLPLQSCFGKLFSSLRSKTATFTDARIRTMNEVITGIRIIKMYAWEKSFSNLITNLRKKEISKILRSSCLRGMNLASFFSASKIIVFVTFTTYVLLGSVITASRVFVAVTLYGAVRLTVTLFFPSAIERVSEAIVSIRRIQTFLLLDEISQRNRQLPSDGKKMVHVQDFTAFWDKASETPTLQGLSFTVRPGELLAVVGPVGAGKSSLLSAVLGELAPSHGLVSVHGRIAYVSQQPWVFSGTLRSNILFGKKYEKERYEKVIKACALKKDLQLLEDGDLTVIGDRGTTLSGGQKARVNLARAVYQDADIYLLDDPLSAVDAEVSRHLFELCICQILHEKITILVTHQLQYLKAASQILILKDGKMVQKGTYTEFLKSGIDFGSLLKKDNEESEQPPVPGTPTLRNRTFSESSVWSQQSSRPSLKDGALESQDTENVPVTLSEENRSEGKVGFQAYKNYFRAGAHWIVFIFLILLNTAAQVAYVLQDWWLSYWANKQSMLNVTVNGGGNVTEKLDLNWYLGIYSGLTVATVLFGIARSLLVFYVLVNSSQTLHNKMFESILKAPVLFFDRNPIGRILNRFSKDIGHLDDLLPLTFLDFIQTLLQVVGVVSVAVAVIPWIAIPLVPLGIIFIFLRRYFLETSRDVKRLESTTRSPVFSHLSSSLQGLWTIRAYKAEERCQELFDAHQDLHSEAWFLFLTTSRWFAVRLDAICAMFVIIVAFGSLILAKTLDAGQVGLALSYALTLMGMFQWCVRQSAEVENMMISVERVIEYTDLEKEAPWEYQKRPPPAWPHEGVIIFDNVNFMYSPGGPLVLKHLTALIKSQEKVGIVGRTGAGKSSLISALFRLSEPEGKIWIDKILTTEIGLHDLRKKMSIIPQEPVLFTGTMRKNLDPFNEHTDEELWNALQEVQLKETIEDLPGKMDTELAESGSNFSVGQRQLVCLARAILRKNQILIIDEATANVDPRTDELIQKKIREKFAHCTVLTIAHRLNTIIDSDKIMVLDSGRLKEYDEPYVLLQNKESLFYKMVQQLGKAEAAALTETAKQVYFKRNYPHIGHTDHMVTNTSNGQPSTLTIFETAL

[3] = Drug concentration at steady state in human at 800 mg administered once per week for 6 weeks through intravesical instillation measured after 6 hrs; assay type: ADME; details: in vivo, read-out: Css
[4] = Ratio of drug concentration at steady state in human at 800 mg administered once per week for 6 weeks through intravesical instillation measured after 6 hrs to IC50 for human MRP2 overexpressed in Sf9 insect cells; assay type: ADME; details: in vivo, other
[5] = molecular target: ATP-binding cassette sub-family C member 3 (Homo sapiens, UniProt O15438); assay: Inhibition of human MRP3 overexpressed in Sf9 insect cell membrane vesicles assessed as uptake of [3H]-estradiol-17beta-D-glucuronide in presence of ATP and GSH measured after 10 mins by membrane vesicle transport assay; assay type: ADME, cell-based
[6] = Ratio of drug concentration at steady state in human at 800 mg administered once per week for 6 weeks through intravesical instillation measured after 6 hrs to IC50 for human MRP4 overexpressed in Sf9 insect cells; assay type: ADME; details: in vivo, other
[7] = Ratio of drug concentration at steady state in human at 800 mg administered once per week for 6 weeks through intravesical instillation measured after 6 hrs to IC50 for human MRP3 overexpressed in Sf9 insect cells; assay type: ADME; details: in vivo, other
[8] = molecular target: ATP-binding cassette sub-family C member 2 (Homo sapiens, UniProt Q92887); assay: Inhibition of human MRP2 overexpressed in Sf9 cell membrane vesicles assessed as uptake of [3H]-estradiol-17beta-D-glucuronide in presence of ATP and GSH measured after 20 mins by membrane vesicle transport assay
[9] = Ratio of drug concentration at steady state in human at 800 mg administered once per week for 6 weeks through intravesical instillation measured after 6 hrs to IC50 for human BSEP overexpressed in Sf9 insect cells; assay type: ADME; details: in vivo, other
Homo sapiens [10] = assay: Drug concentration at steady state in human at 5 to 10 mg, po after 24 hrs; details: in vivo
[11] = AUC in human at 5 to 10 mg, po after 24 hrs; assay type: ADME, organism-based; details: in vivo
[12] = Ratio of drug concentration at steady state in human at 60 to 120 mg, po QD after 24 hrs to IC50 for human MRP4 overexpressed in Sf9 insect cells; assay type: ADME, organism-based; details: in vivo
[13] = AUC in human at 60 to 120 mg, po QD after 24 hrs; assay type: ADME, organism-based; details: in vivo
[14] = Drug concentration at steady state in human at 60 to 120 mg, po QD after 24 hrs; assay type: ADME, organism-based; details: in vivo, read-out: Css
[15] = Ratio of drug concentration at steady state in human at 60 to 120 mg, po QD after 24 hrs to IC50 for human BSEP overexpressed in Sf9 insect cells; assay type: ADME, organism-based; details: in vivo
Homo sapiens [16] = assay: Drug concentration at steady state in human at 20 to 40 mg, iv QD after 24 hrs; assay type: ADME, organism-based; details: in vivo
[17] = Ratio of drug concentration at steady state in human at 20 to 40 mg, iv QD after 24 hrs to IC50 for human BSEP overexpressed in Sf9 insect cells; assay type: ADME, organism-based; details: in vivo
[18] = AUC in human at 20 to 40 mg, iv QD after 24 hrs; assay type: ADME, organism-based; details: in vivo
[19] = Drug concentration at steady state in patient with advanced phase CML and Ph+ ALL at 100 mg, po BID after 12 hrs; assay type: ADME, organism-based; details: human, in vivo, read-out: Css
[20] = Drug concentration at steady state in patient with chronic phase CML at 70 to 90 mg, po BID after 12 hrs; assay type: ADME, organism-based; details: human, in vivo, read-out: Css
[21] = Ratio of drug concentration at steady state in patient with advanced phase CML and Ph+ ALL at 100 mg, po BID after 12 hrs to IC50 for human BSEP overexpressed in Sf9 insect cells; assay type: ADME, organism-based; details: in vivo
[22] = AUC in patient with advanced phase CML and Ph+ ALL at 100 mg, po BID after 12 hrs; assay type: ADME, organism-based; set-up: dose 100 mg, time < 12 hr, route oral; details: human, in vivo
[23] = Ratio of drug concentration at steady state patient with chronic phase CML at 70 to 90 mg, po BID after 12 hrs to IC50 for human MRP4 overexpressed in Sf9 insect cells; assay type: ADME, organism-based; details: in vivo
[24] = Ratio of drug concentration at steady state in patient with advanced phase CML and Ph+ ALL at 100 mg, po BID after 12 hrs to IC50 for human MRP4 overexpressed in Sf9 insect cells; assay type: ADME, organism-based; details: in vivo
[25] = Ratio of drug concentration at steady state in patient with chronic phase CML at 70 to 90 mg, po BID after 12 hrs to IC50 for human BSEP overexpressed in Sf9 insect cells; assay type: ADME, organism-based; details: in vivo
[26] = AUC in patient with chronic phase CML at 70 to 90 mg, po BID after 12 hrs; assay type: ADME, organism-based; details: human, in vivo

Chain of Bile salt export pump (O95342 whole entry): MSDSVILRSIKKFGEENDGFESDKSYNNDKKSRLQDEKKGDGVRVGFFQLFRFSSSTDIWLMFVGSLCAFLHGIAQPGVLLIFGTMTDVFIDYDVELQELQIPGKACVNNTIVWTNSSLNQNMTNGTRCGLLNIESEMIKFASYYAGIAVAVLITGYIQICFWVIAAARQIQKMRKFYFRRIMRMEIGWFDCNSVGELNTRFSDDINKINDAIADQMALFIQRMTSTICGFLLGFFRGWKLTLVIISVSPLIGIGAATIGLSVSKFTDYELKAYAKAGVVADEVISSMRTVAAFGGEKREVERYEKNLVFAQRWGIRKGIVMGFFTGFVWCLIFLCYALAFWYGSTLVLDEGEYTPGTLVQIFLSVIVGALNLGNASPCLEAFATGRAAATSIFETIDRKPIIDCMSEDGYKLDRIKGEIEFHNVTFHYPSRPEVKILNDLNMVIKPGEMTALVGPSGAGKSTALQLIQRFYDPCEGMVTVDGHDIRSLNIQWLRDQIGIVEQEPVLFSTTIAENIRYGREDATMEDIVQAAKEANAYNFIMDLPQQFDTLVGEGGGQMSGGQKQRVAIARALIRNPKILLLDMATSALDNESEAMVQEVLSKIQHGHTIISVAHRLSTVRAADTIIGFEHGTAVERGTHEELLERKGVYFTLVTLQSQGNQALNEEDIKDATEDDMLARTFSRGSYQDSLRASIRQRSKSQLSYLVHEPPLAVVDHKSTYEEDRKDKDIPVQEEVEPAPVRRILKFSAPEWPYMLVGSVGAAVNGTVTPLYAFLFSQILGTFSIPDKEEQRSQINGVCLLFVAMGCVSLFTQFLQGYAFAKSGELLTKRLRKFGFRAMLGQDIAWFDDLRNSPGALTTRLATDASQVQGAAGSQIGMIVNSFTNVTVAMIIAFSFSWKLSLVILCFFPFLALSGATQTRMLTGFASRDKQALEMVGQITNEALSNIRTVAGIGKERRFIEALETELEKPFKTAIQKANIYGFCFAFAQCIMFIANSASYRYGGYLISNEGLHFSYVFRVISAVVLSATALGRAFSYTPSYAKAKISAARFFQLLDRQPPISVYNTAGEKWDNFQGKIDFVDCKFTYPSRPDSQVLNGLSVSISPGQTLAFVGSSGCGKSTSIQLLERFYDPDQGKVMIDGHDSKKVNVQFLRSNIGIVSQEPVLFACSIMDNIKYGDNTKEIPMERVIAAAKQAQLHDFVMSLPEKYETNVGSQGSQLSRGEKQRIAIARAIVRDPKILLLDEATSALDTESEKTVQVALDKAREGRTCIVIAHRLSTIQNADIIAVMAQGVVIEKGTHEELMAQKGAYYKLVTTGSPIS
Chain of ATP-binding cassette sub-family C member 3 (O15438 whole entry): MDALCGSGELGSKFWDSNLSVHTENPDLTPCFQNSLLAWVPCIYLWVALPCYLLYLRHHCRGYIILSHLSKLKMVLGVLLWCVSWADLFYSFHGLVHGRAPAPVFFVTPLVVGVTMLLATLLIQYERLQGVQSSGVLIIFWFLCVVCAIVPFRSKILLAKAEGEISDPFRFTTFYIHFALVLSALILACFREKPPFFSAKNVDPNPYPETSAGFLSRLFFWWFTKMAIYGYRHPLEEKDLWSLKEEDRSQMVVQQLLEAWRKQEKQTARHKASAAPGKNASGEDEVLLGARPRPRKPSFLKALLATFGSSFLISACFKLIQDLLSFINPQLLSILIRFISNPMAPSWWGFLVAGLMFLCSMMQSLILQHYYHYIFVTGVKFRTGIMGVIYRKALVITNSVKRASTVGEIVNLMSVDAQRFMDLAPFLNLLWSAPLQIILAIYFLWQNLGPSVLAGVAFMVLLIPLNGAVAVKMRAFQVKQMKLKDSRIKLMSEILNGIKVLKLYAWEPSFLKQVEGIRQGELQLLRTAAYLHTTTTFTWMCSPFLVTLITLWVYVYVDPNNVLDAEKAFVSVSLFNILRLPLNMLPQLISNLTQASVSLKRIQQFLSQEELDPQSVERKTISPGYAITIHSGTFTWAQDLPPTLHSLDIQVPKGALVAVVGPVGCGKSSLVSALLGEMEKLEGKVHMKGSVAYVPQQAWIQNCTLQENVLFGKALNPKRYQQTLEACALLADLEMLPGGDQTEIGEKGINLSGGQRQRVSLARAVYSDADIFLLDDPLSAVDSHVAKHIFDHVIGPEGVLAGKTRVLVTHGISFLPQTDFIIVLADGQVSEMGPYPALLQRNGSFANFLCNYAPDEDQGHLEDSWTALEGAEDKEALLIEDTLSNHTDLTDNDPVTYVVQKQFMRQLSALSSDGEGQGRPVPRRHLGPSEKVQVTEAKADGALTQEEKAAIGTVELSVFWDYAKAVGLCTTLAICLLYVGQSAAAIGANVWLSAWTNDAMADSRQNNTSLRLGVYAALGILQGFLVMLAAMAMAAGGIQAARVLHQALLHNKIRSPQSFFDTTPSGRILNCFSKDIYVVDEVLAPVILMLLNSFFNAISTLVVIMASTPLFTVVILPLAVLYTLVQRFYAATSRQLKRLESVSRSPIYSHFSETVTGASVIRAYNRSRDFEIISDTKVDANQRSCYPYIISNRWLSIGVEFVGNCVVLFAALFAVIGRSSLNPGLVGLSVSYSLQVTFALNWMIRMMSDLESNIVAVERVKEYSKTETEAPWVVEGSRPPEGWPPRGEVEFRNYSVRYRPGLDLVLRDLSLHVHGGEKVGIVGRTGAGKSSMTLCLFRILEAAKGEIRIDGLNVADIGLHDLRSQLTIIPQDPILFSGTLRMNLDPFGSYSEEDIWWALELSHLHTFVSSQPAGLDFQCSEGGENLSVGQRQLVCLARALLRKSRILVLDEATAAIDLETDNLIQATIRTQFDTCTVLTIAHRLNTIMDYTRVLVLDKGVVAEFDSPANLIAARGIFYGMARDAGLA
Chain of ATP-binding cassette sub-family C member 2 (Q92887 whole entry): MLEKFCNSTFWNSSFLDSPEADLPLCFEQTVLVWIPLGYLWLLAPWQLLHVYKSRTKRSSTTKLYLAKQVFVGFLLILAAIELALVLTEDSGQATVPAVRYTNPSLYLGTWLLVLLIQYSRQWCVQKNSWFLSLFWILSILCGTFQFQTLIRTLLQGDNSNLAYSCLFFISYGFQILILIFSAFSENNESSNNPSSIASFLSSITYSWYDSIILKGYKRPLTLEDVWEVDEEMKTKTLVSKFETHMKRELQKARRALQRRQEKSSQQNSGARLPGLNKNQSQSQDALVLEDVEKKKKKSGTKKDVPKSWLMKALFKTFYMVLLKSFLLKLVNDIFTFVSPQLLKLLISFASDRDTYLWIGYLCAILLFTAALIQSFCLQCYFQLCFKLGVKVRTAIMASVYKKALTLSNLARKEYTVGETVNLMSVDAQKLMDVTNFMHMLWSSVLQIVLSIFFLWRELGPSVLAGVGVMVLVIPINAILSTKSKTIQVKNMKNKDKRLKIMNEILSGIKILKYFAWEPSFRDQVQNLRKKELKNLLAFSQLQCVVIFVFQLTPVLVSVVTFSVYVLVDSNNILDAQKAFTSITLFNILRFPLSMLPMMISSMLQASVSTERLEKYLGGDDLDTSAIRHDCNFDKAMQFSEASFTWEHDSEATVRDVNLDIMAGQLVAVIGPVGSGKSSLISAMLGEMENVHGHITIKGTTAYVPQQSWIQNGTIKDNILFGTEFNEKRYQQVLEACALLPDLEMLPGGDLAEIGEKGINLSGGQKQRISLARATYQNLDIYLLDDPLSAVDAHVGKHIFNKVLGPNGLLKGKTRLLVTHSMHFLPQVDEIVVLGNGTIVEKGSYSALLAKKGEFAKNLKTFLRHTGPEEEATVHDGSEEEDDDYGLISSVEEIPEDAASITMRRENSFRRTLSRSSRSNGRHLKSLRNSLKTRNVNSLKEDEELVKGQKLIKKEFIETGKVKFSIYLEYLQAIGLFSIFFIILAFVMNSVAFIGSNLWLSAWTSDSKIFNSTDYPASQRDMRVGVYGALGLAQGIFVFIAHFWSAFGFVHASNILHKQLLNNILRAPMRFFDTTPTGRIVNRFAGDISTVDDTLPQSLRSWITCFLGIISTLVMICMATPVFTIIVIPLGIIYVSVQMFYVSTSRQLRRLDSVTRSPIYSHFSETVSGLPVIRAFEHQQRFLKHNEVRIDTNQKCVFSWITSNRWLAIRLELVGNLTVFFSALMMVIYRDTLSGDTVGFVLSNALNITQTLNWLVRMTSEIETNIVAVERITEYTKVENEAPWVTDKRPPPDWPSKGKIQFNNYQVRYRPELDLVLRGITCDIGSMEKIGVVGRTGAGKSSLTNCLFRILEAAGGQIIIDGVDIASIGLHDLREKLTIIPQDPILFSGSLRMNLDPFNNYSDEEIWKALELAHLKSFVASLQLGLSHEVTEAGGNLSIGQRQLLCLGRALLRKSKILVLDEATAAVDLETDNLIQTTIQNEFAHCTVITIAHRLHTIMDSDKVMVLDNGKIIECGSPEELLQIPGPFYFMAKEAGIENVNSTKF

Structure (SMILES): COc1cc2c(cc1OC)C(=O)C(CC1CCN(Cc3ccccc3)CC1)C2 (stereo unspecified) [DONEPEZIL]
IC50 [2]: 72.9 µM
Css (Homo sapiens [10]): 406 nM
IC50 [5]: > 133 µM
AUC at 24 h [11]: 9.76 µM·h
IC50 [8]: > 133 µM

Structure (SMILES): COC(=O)C1=C(C)NC(C)=C(C(=O)OCCN(C)Cc2ccccc2)C1c1cccc([N+](=O)[O-])c1 (stereo unspecified) [NICARDIPINE]
IC50 [2]: 88 µM
Ratio [12]: 0
AUC at 24 h [13]: 0.72 µM·h
IC50 [5]: > 133 µM
concentration at 24 h [14]: 30 nM
Ratio [15]: 0.004
IC50 [8]: > 133 µM

Structure (SMILES): Cc1nc(Nc2ncc(C(=O)Nc3c(C)cccc3Cl)s2)cc(N2CCN(CCO)CC2)n1.O [DASATINIB]
IC50 (Bile salt export pump): 13.1 µM
concentration at 12 h [19]: 52 nM
IC50 [2]: 27.3 µM
concentration at 12 h [20]: 52 nM
Ratio [21]: 0.004
AUC at 12 h [22]: 0.624 µM·h
IC50 [5]: > 133 µM
Ratio [23]: 0.002
Ratio [24]: 0.002
Ratio [25]: 0.004
AUC at 12 h [26]: 0.624 µM·h
IC50 [8]: > 133 µM

Second part, led by results:

AUC at 6 h [1]: 0.788 µM·h
IC50 [2]: 36.8 µM
concentration at 6 h [3]: 131 nM
Ratio [4]: 0.002
IC50 [5]: 76.3 µM
Ratio [6]: 0.004
Ratio [7]: 0.002
IC50 [8]: 64 µM
Structure (SMILES): CCCCC(=O)OCC(=O)[C@]1(O)Cc2c(O)c3c(c(O)c2[C@@H](O[C@H]2C[C@H](NC(=O)C(F)(F)F)[C@H](O)[C@H](C)O2)C1)C(=O)c1c(OC)cccc1C3=O [VALRUBICIN]
IC50 (Bile salt export pump): 24.1 µM
Ratio [9]: 0.005

IC50 [2]: > 133 µM
Css (Homo sapiens [16]): 468.2 nM
AUC at 24 h [18]: 11.2 µM·h
IC50 [5]: > 133 µM
IC50 [8]: > 133 µM
Structure (SMILES): COc1ccc2[nH]c([S+]([O-])Cc3ncc(C)c(OC)c3C)nc2c1 (stereo unspecified) [OMEPRAZOLE]
IC50 (Bile salt export pump): 99 µM
Ratio [17]: 0.005
